In patent US20190345150A1, “MICROBIOCIDAL OXADIAZOLE DERIVATIVES” (SYNGENTA PARTICIPATIONS AG, priority 2016, published 2019):

Experiments:
[1] = tested on: Puccinia recondita f. Sp. Tritici; assay: Puccinia recondita f. sp. tritici / wheat / leaf disc curative (brown rust); type: in vivo; conditions: foliar, 24 h, 200 ppm in the applied formulation, wheat leaf segments cv. Kanzler, curative (applied 1 day after inoculation), compared to untreated control, read-out: disease control
Procedure: Leaf disks or leaf segments of various plant species are cut from plants grown in a greenhouse. The cut leaf disks or segments are placed in multiwell plates (24-well format) onto water agar. The leaf disks are sprayed with a test solution before (preventative) or after (curative) inoculation. Compounds to be tested are prepared as DMSO solutions (max. 10 mg/ml) which are diluted to the appropriate concentration with 0.025% Tween20 just before spraying. The inoculated leaf disks or segments are incubated under defined conditions (temperature, relative humidity, light, etc.) according to the respective test system. A single evaluation of disease level is carried out 3 to 14 days after inoculation, depending on the pathosystem. Percent disease control relative to the untreated check leaf disks or segments is then calculated. Wheat leaf segments cv. Kanzler are placed on agar in multiwell plates (24-well format). The leaf segments are then inoculated with a spore suspension of the fungus. Plates were stored in darkness at 19° C. and 75% relative humidity. The formulated test compound diluted in water was applied 1 day after inoculation. The leaf segments were incubated at 19° C. and 75% relative humidity under a light regime of 12 hours light/12 hours darkness in a climate cabinet and the activity of a compound was assessed as percent disease control compared to untreated when an appropriate level of disease damage appears in untreated check leaf segments (6 to 8 days after application).

[2] = tested on: Puccinia recondita f. Sp. Tritici; assay: Puccinia recondita f. sp. tritici / wheat / leaf disc preventative (brown rust); type: in vivo; conditions: foliar, 200 ppm in the applied formulation, wheat leaf segments cv. Kanzler, preventative (inoculated 1 day after application), compared to untreated control, read-out: disease control
Procedure: Leaf disks or leaf segments of various plant species are cut from plants grown in a greenhouse. The cut leaf disks or segments are placed in multiwell plates (24-well format) onto water agar. The leaf disks are sprayed with a test solution before (preventative) or after (curative) inoculation. Compounds to be tested are prepared as DMSO solutions (max. 10 mg/ml) which are diluted to the appropriate concentration with 0.025% Tween20 just before spraying. The inoculated leaf disks or segments are incubated under defined conditions (temperature, relative humidity, light, etc.) according to the respective test system. A single evaluation of disease level is carried out 3 to 14 days after inoculation, depending on the pathosystem. Percent disease control relative to the untreated check leaf disks or segments is then calculated. Wheat leaf segments cv. Kanzler were placed on agar in multiwell plates (24-well format) and sprayed with the formulated test compound diluted in water. The leaf disks were inoculated with a spore suspension of the fungus 1 day after application. The inoculated leaf segments were incubated at 19° C. and 75% relative humidity (rh) under a light regime of 12 hours light/12 hours darkness in a climate cabinet and the activity of a compound was assessed as percent disease control compared to untreated when an appropriate level of disease damage appears in untreated check leaf segments (7 to 9 days after application).

[3] = tested on: Glomerella laqenarium (Colletotrichum laqenarium); assay: Glomerella lagenarium liquid culture / cucumber / preventative (anthracnose); type: cell-based; conditions: 20 ppm in the applied formulation, liquid culture in PDB, growth inhibition measured photometrically 3 to 4 days after application, compared to untreated control, read-out: disease control
Procedure: Mycelia fragments or conidia suspensions of a fungus prepared either freshly from liquid cultures of the fungus or from cryogenic storage, are directly mixed into nutrient broth. DMSO solutions of the test compound (max. 10 mg/ml) are diluted with 0.025% Tween20 by a factor of 50 and 10 μl of this solution is pipetted into a microtiter plate (96-well format). The nutrient broth containing the fungal spores/mycelia fragments is then added to give an end concentration of the tested compound. The test plates are incubated in the dark at 24° C. and 96% relative humidity. The inhibition of fungal growth is determined photometrically after 2 to 7 days, depending on the pathosystem, and percent antifungal activity relative to the untreated check is calculated. Conidia of the fungus from cryogenic storage are directly mixed into nutrient broth (PDB—potato dextrose broth). After placing a (DMSO) solution of test compound into a microtiter plate (96-well format), the nutrient broth containing the fungal spores is added. The test plates are incubated at 24° C. and the inhibition of growth is measured photometrically 3 to 4 days after application.

SMILES	pest or weed control at 200 ppm [1] [%]	melting point [°C]	pest or weed control at 200 ppm [2] [%]	inhibition of growth at 20 ppm [3] [%]
Fc1ccc(OCc2ccc(-c3noc(C(F)(F)F)n3)cc2)cc1 [Compound 1.6, 3-[4-[(4-fluorophenoxy)methyl]phenyl]-5-(trifluoromethyl)-1,2,4-oxadiazole]	≥ 80	174 to 176	–	–
FC(F)(F)c1nc(-c2ccc(COc3ccccc3)cc2)no1 [Compound 1.7, 3-[4-(phenoxymethyl)phenyl]-5-(trifluoromethyl)-1,2,4-oxadiazole]	≥ 80	105 to 107	–	–
FC(F)(F)c1nc(-c2ccc(COc3ccccn3)cc2)no1 [Compound 1.9, 3-[4-(2-pyridyloxymethyl)phenyl]-5-(trifluoromethyl)-1,2,4-oxadiazole]	≥ 80	86 to 88	≥ 80	≥ 80
Fc1cccc(F)c1OCc1ccc(-c2noc(C(F)(F)F)n2)cc1 [Compound 1.10, 3-[4-[(2,6-difluorophenoxy)methyl]phenyl]-5-(trifluoromethyl)-1,2,4-oxadiazole]	≥ 80	66 to 68	–	–
Fc1c(COc2ccccc2)ccc(-c2noc(C(F)(F)F)n2)c1F [Compound 1.12, 3-[2,3-difluoro-4-(phenoxymethyl)phenyl]-5-(trifluoromethyl)-1,2,4-oxadiazole]	–	113 to 115	–	–
N#Cc1ccc(OCc2ccc(-c3noc(C(F)(F)F)n3)cc2)nc1 [Compound 1.14, 6-[[4-[5-(trifluoromethyl)-1,2,4-oxadiazol-3-yl]phenyl]methoxy]pyridine-3-carbonitrile]	–	156 to 158	≥ 80	≥ 80
Cc1ccc(OCc2ccc(-c3noc(C(F)(F)F)n3)cc2)nc1 [Compound 1.15, 3-[4-[(5-methyl-2-pyridyl)oxymethyl]phenyl]-5-(trifluoromethyl)-1,2,4-ioxadiazole]	≥ 80	141 to 143	–	–
Cc1nnc(OCc2ccc(-c3noc(C(F)(F)F)n3)cc2)o1 [Compound 1.20, 2-methyl-5-[[4-[5-(trifluoromethyl)-1,2,4-oxadiazol-3-yl]phenyl]methoxy]-1,3,4-oxadiazole]	–	–	–	≥ 80
FC(F)(F)c1nc(-c2ccc(COc3ccc(Br)nn3)cc2)no1 [Compound 1.21, 3-[4-[(6-bromopyridazin-3-yl)oxymethyl]phenyl]-5-(trifluoromethyl)-1,2,4-oxadiazole]	–	–	–	≥ 80
Cc1cccc(OC(C)c2ccc(-c3noc(C(F)(F)F)n3)cc2)n1 (stereo not shown) [Compound 1.24, 3-[4-[1-[(6-methyl-2-pyridyl)oxy]ethyl]phenyl]-5-(trifluoromethyl)-1,2,4-oxadiazole]	–	–	–	≥ 80
Cc1cccc(OCc2cc(F)c(-c3noc(C(F)(F)F)n3)c(F)c2)n1 [Compound 1.25, 3-[2,6-difluoro-4-[(6-methyl-2-pyridyl)oxymethyl]phenyl]-5-(trifluoromethyl)-1,2,4-oxadiazole]	–	65 to 66	–	≥ 80
CC1(C)CC(OCc2cc(F)c(-c3noc(C(F)(F)F)n3)c(F)c2)=NO1 [Compound 1.26, 3-[4-[(5,5-dimethyl-4H-isoxazol-3-yl)oxymethyl]-2,6-difluoro-phenyl]-5-(trifluoromethyl)-1,2,4-oxadiazole]	≥ 80	–	≥ 80	≥ 80
Cc1cccc(OCc2cc(F)c(-c3noc(C(F)(F)F)n3)cc2F)n1 [Compound 1.27, 3-[2,5-difluoro-4-[(6-methyl-2-pyridyl)oxymethyl]phenyl]-5-(trifluoromethyl)-1,2,4-oxadiazole]	–	91 to 94	–	–
CC(=O)OCc1ccc(-c2noc(C(F)(F)F)n2)cc1 [Compound 2.1, [4-[5-(trifluoromethyl)-1,2,4-oxadiazol-3-yl]phenyl]methyl acetate]	–	–	≥ 80	≥ 80
CC(C)C(=O)OCc1ccc(-c2noc(C(F)(F)F)n2)cc1 [Compound 2.2, [4-[5-(trifluoromethyl)-1,2,4-oxadiazol-3-yl]phenyl]methyl 2-methylpropanoate]	–	48 to 50	–	≥ 80
CC(C)(C)C(=O)OCc1ccc(-c2noc(C(F)(F)F)n2)cc1 [Compound 2.3, [4-[5-(trifluoromethyl)-1,2,4-oxadiazol-3-yl]phenyl]methyl 2,2-dimethylpropanoate]	–	–	–	≥ 80
O=C(NCC(F)(F)F)OCc1ccc(-c2noc(C(F)(F)F)n2)cc1 [Compound 3.3, [4-[5-(trifluoromethyl)-1,2,4-oxadiazol-3-yl]phenyl]methyl N-(2,2,2-trifluoroethyl)carbamate]	≥ 80	–	≥ 80	≥ 80
CON(C)C(=O)OCc1ccc(-c2noc(C(F)(F)F)n2)cc1 [Compound 3.4, [4-[5-(trifluoromethyl)-1,2,4-oxadiazol-3-yl]phenyl]methyl N-methoxy-N-methyl-carbamate]	–	–	–	≥ 80
CC(OC(=O)N(C)C)c1ccc(-c2noc(C(F)(F)F)n2)cc1 (stereo not shown) [Compound 3.5, 1-[4-[5-(trifluoromethyl)-1,2,4-oxadiazol-3-yl]phenyl]ethyl N,N-dimethylcarbamate]	≥ 80	–	≥ 80	≥ 80
CN(C(=O)OCc1ccc(-c2noc(C(F)(F)F)n2)cc1)c1ccccn1 [Compound 3.6, [4-[5-(trifluoromethyl)-1,2,4-oxadiazol-3-yl]phenyl]methyl N-methyl-N-(2-pyridyl)carbamate]	–	110 to 112	–	–
CNC(=O)OCc1ccc(-c2noc(C(F)(F)F)n2)cc1 [Compound 3.7, [4-[5-(trifluoromethyl)-1,2,4-oxadiazol-3-yl]phenyl]methyl N-methylcarbamate]	–	100 to 102	–	–
CC(C)=NOCc1ccc(-c2noc(C(F)(F)F)n2)cc1 [Compound 4.1, N-[[4-[5-(trifluoromethyl)-1,2,4-oxadiazol-3-yl]phenyl]methoxy]propan-2-imine]	≥ 80	48 to 52	–	–
CC1=NN(C)C(=O)C1=NOCc1ccc(-c2noc(C(F)(F)F)n2)cc1 [Compound 4.4, 2,5-dimethyl-4-[[4-[5-(trifluoromethyl)-1,2,4-oxadiazol-3-yl]phenyl]methoxyimino]pyrazol-3-one]	–	110 to 111	–	≥ 80
